In ChEMBL document CHEMBL5357000, “Synthesis and structure-activity relationships of aryl fluorosulfate-based inhibitors as novel antitubercular agents” (Bioorg Med Chem Lett, 2024):
In brackets after ≈: the same amount, converted by molar mass.

Columns and labels:
[1] = Drug uptake in mouse lungs at 20 mg/kg, po measured after 8 hrs; assay type: ADME, organism-based; conditions: lung, read-out: Drug uptake
[2] = Plasma concentration in mouse at 20 mg/kg, po measured after 8 hrs; assay type: ADME, organism-based
[3] = system: Mycobacterium tuberculosis; assay: Antitubercular activity against Mycobacterium tuberculosis H37Rv assessed as inhibition of bacterial growth incubated for 7 days by Microdilution Alamar Blue assay; assay type: functional; conditions: 168 h, time 7 day
[4] = Cytotoxicity against human HEK293T cells assessed as reduction in cell viability measured after 3 days by CellTiterGlo Luminescent assay; assay type: toxicity, cell-based, HEK-293T; conditions: time 3 day
[5] = Cytotoxicity against human HepG2 cells assessed as reduction in cell viability measured after 3 days by CellTiterGlo Luminescent assay; assay type: toxicity, cell-based; conditions: time 3 day

Compound | concentration at 8 h [1] | concentration at 8 h [2] | MIC [3] | CC50 at 72 h [4] | CC50 at 72 h [5]
CS(=O)(=O)Nc1ncn(-c2cc(F)c(COc3ccc(OS(=O)(=O)F)cc3)c(F)c2)n1 | 1600 ng/mL | 2120 ng/mL | – | – | –
O=S(=O)(F)Oc1ccc(OCc2c(F)cc(-n3cnnc3)cc2F)cc1 | – | – | 0.22 µM (≈ 0.0848 µg/mL) | > 40 µM | > 40 µM
CN(C)c1ncn(-c2cc(F)c(COc3ccc(OS(=O)(=O)F)cc3)c(F)c2)n1 | – | – | 0.31 µM (≈ 0.133 µg/mL) | > 40 µM | > 40 µM
